Where two headings read alike, the source gives them in different places.
Legend:
kinase panels = details: cited from earlier work
EML4-ALK Ba/F3 cells = assay: Cell survival assay (MTS); details: EML4-ALK Ba/F3, 48 h
Experimental: (§1) The murine Pro‐B cell line Ba/F3 cells were provided by Jianming Zhang from Shanghai Jiaotong University. All cells were authenticated by short tandem repeat testing and tested negative for mycoplasma contamination using Luminescent Mycoplasma Detection Kit (Beyotime, Shanghai, China). […] All of these cell lines were maintained at 37°C and 5% CO2.
(§2) Cell viability was determined by MTS assay (Promega).

[1] = Pharmacokinetics in ICR mice; type: in vivo; details: for concentration at […] / concentration at 0.25 h / concentration at 0.5 h / concentration at 1 h / concentration at 2 h / concentration at 4 h / concentration at 8 h / concentration at 24 h: ICR, blood, read-out: Blood drug concentration; for concentration at […]: 0.083 h; for MRT inf: read-out: MRT(0-∞); for Vd: read-out: Vz;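 on all read-outs here: drug levels in collected samples measured by LC-MS/MS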
Experimental: Then the samples were quantified by LC-MS/MS, and data analysis was conducted using WinNonlin V6.3. IV = intravenous injection, PO = oral delivery, Tmax = time of maximum plasma concentration, Cmax = maximum plasma concentration, AUC = area under the curve (measure of exposure), T1/2 = half life, CL = plasma clearance, Vz = volume of distribution, F = oral bioavailability.

[2] = test system: parental (wild-type) Ba/F3 cells; assay: Cell survival assay (MTS); type: cell-based, murine; details: Mus musculus, BaF3, 48 h
Experimental: as §1, §2

[3] = mouse, plasma, IV, 5 mg/kg, ICR mice
[4] = mouse, plasma, IV, 30 mg/kg, ICR mice
[5] = mouse, plasma, IV, 60 mg/kg, ICR mice
[6] = mouse, plasma, PO, 10 mg/kg, ICR mice
[7] = reported data ref Huber et al, 2014

For `Cc1cc(Nc2ncc(Cl)c(Nc3ccccc3S(=O)(=O)C(C)C)n2)c(OC(C)C)cc1C1CCNCC1` [Ceritinib, ceritinib], the “S(10)” value (kinase panels; reported data ref Jang et al, 2017) is listed as 0.19 and the IC50 (EML4-ALK Ba/F3 cells; Mus musculus, BaF3, 48 h) is listed as 1.2 nM.
For `COc1cc(N2CCC(N3CCN(C)CC3)CC2)ccc1Nc1ncc(Cl)c(Nc2ccccc2P(C)(C)=O)n1` [Brigatinib, brigatinib], the “S(10)” value (kinase panels; reported data ref Zhang et al, 2016) is given as 0.34 and the IC50 (EML4-ALK Ba/F3 cells; Mus musculus, BaF3, 48 h) is given as 17.3 nM.
`COc1cc2c(cc1Nc1nc(Nc3ccccc3S(=O)(=O)C(C)C)c3[nH]ccc3n1)N(C(=O)CN(C)C)CC2` [XMU-MP-5] gave a concentration at […] ([1]; mouse, IV, 5 mg/kg, mice) of 4300 ng/mL, a concentration at 0.25 h ([1]; mouse, IV, 5 mg/kg, mice) of 2430 ng/mL and a concentration at 0.5 h ([1]; mouse, IV, 5 mg/kg, mice) of 1530 ng/mL. For the same compound, the concentration at 1 h ([1]; mouse, IV, 5 mg/kg, mice) was 613 ng/mL, the concentration at 2 h ([1]; mouse, IV, 5 mg/kg, mice) was 308 ng/mL and the concentration at 4 h ([1]; mouse, IV, 5 mg/kg, mice) was 72.8 ng/mL. The concentration at 8 h ([1]; mouse, IV, 5 mg/kg, mice) was 28.7 ng/mL, the concentration at 24 h ([1]; mouse, IV, 5 mg/kg, mice) was 2.09 ng/mL and the concentration at […] ([1]; mouse, IV, 30 mg/kg, mice) was 8260 ng/mL. It also gave a concentration at 0.25 h ([1]; mouse, IV, 30 mg/kg, mice) of 5430 ng/mL, a concentration at 0.5 h ([1]; mouse, IV, 30 mg/kg, mice) of 3870 ng/mL and a concentration at 1 h ([1]; mouse, IV, 30 mg/kg, mice) of 2990 ng/mL. It also gave a concentration at 2 h ([1]; mouse, IV, 30 mg/kg, mice) of 2060 ng/mL, a concentration at 4 h ([1]; mouse, IV, 30 mg/kg, mice) of 688 ng/mL and a concentration at 8 h ([1]; mouse, IV, 30 mg/kg, mice) of 171 ng/mL. For the same compound, the concentration at 24 h ([1]; mouse, IV, 30 mg/kg, mice) was 17.9 ng/mL, the concentration at […] ([1]; mouse, IV, 60 mg/kg, mice) was 12400 ng/mL and the concentration at 0.25 h ([1]; mouse, IV, 60 mg/kg, mice) was 7190 ng/mL. The concentration at 0.5 h ([1]; mouse, IV, 60 mg/kg, mice) was 6430 ng/mL, the concentration at 1 h ([1]; mouse, IV, 60 mg/kg, mice) was 5430 ng/mL and the concentration at 2 h ([1]; mouse, IV, 60 mg/kg, mice) was 2910 ng/mL. For the same compound, the concentration at 4 h ([1]; mouse, IV, 60 mg/kg, mice) was 2580 ng/mL, the concentration at 8 h ([1]; mouse, IV, 60 mg/kg, mice) was 555 ng/mL and the concentration at 24 h ([1]; mouse, IV, 60 mg/kg, mice) was 29.6 ng/mL. The “dose dependence of blood drug concentrations” value ([1]; IV, 5, 30 and 60 mg/kg, mice) was “linear increase”, the AUC(0-inf) [1, 3] was 3310 ng·h/mL and the AUC(0-t) [1, 3] was 3300 ng·h/mL. For the same compound, the C0 [1, 3] was 5720 ng/mL, the Cmax [1, 3] was 4300 ng/mL and the Tmax [1, 3] was 4.8 min. For the same compound, the clearance [1, 3] was 25.2 mL/min/kg, the half-life [1, 3] was 239 min and the MRT inf [1, 3] was 1.74 h. For the same compound, the Vd [1, 3] was 8.7 L/kg, the AUC(0-inf) [1, 4] was 13200 ng·h/mL and the AUC(0-t) [1, 4] was 13100 ng·h/mL. It also gave a C0 [1, 4] of 10200 ng/mL, a clearance [1, 4] of 37.8 mL/min/kg and a half-life [1, 4] of 296 min. The MRT inf [1, 4] was 2.95 h, the Vd [1, 4] was 6.7 L/kg and the AUC(0-inf) [1, 5] was 26400 ng·h/mL. For the same compound, the AUC(0-t) [1, 5] was 26200 ng·h/mL, the C0 [1, 5] was 16300 ng/mL and the clearance [1, 5] was 37.8 mL/min/kg. The half-life [1, 5] was 241 min, the MRT inf [1, 5] was 3.39 h and the Vd [1, 5] was 7.71 L/kg. The AUC(0-inf) [1, 6] was 1270 ng·h/mL, the AUC(0-t) [1, 6] was 1210 ng·h/mL and the Cmax [1, 6] was 474 ng/mL. The Tmax [1, 6] was 30 min, the half-life [1, 6] was 91.8 min and the bioavailability ([1]; mouse, plasma, PO, 10 mg/kg, ICR mice, read-out: F (oral bioavailability)) was 18.3%. It also gave an MRT inf [1, 6] of 3.08 h.
For `CCc1cc2c(cc1N1CCC(N3CCOCC3)CC1)C(C)(C)c1[nH]c3cc(C#N)ccc3c1C2=O` [Alectinib, alectinib], the “S(10)” value (kinase panels; reported data ref Sakamoto et al, 2011) is given as 0.07.
In the case of `C[C@@H](Oc1cc(-c2cnn(C3CCNCC3)c2)cnc1N)c1c(Cl)ccc(F)c1Cl` [Crizotinib, crizotinib], the IC50 [2] is given as 1120 nM, the “S(35)” value (kinase panels; [7]) is given as 0.21 and the “number of kinases with ctrl ≤35%” value (kinase panels; [7]) is given as 94.
Compound `C[C@H]1Oc2cc(cnc2N)-c2c(nn(C)c2C#N)CN(C)C(=O)c2ccc(F)cc21` [Lorlatinib, lorlatinib] has an IC50 (EML4-ALK Ba/F3 cells) of 1.5 nM.

Reference: paper PMC8749467, “A new ALK inhibitor overcomes resistance to first‐ and second‐generation inhibitors in NSCLC” (EMBO Molecular Medicine, 2021)
